These results are taken from ChEMBL document CHEMBL5356980, “Linker optimization and activity validation of a cell surface vimentin targeted homo-dimeric peptoid antagonist for lung cancer stem cells” (Bioorg Med Chem, 2024).

One assay has as its system NCI-H1299. In words: Antiproliferative activity against human NCI-H1299 cells assessed as reduction in cell viability incubated for 4 days by MTS assay. In kind it is functional, cell-based. The note with it: for Activity: dose 1000-100000 nM, time 4.0 day. (Formazan colour is commonly taken as a measure of viable cells.)
Another assay relates to NCI-H460. In words: Inhibition of colony formation in human NCI-H460 cells at 20 uM incubated for 8 days by crystal violet staining based analysis. In kind it is functional, cell-based. The note with it: time 8.0 day.
The target in the next assay is Vimentin (Homo sapiens, UniProt P08670). In words: Binding affinity to his-tagged recombinant Vimentin (unknown origin) assessed as dissociation constant by ELISA analysis. (In general: ELISA stands for enzyme-linked immunosorbent assay.)
Sequence of Vimentin (P08670 whole entry): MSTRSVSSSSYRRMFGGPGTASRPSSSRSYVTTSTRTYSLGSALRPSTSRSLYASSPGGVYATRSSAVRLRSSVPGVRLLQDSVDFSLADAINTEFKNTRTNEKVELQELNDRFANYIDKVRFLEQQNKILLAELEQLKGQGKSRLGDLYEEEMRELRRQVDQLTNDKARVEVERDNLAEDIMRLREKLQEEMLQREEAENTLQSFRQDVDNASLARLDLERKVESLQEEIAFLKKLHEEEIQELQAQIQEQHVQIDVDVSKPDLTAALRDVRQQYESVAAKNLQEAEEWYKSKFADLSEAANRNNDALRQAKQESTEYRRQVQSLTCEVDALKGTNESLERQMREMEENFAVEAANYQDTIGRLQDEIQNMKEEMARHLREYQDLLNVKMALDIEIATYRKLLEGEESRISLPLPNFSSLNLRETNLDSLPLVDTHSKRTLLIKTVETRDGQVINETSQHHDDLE

The source made the active and inactive calls. The calls are words filed in the database; no cut-off is given here.

On to `COCCN(CC(=O)N[C@H](CCCCN)C(=O)N[C@H](CCSC)C(=O)NCC(=O)NCC(=O)NCCCCC(NC(=O)CNC(=O)CNC(=O)[C@@H](CCSC)NC(=O)[C@@H](CCCCN)NC(=O)CN(CCOC)C(=O)CN(Cc1ccc2c(c1)OCO2)C(=O)CN(CC(C)C)C(=O)CN(CCCCN)C(=O)CN(CCCCN)C(=O)CN(CC(C)C)C(=O)CNc1ccc(C(=O)c2ccccc2)cc1)C(N)=O)C(=O)CN(Cc1ccc2c(c1)OCO2)C(=O)CN(CC(C)C)C(=O)CN(CCCCN)C(=O)CN(CCCCN)C(=O)CN(CC(C)C)C(=O)CNc1ccc(C(=O)c2ccccc2)cc1` (stereo partly specified), for which the Activity result with NCI-H1299 was “Dose-Dependent Effect”.

With `COCCN(CC(=O)N[C@H](CCCCN)C(=O)N[C@H](CCSC)C(=O)NCCCCC(NC(=O)[C@@H](CCSC)NC(=O)[C@@H](CCCCN)NC(=O)CN(CCOC)C(=O)CN(Cc1ccc2c(c1)OCO2)C(=O)CN(CC(C)C)C(=O)CN(CCCCN)C(=O)CN(CCCCN)C(=O)CN(CC(C)C)C(=O)CNc1ccc(C(=O)c2ccccc2)cc1)C(N)=O)C(=O)CN(Cc1ccc2c(c1)OCO2)C(=O)CN(CC(C)C)C(=O)CN(CCCCN)C(=O)CN(CCCCN)C(=O)CN(CC(C)C)C(=O)CNc1ccc(C(=O)c2ccccc2)cc1` (stereo partly specified), the Activity result in the assay on NCI-H1299 was “Dose-Dependent Effect”. Further, in the assay on NCI-H460, the inhibition entry is “Active”. For the same compound, the Kd (as a rule, the equilibrium constant for the complex coming apart) on Vimentin amounted to 1 µM.

For `COCCN(CC(=O)N[C@H](CCCCN)C(=O)N[C@H](CCSC)C(=O)NCC(=O)NCCCCC(NC(=O)COCCOCCNC(=O)CNC(=O)[C@@H](CCSC)NC(=O)[C@@H](CCCCN)NC(=O)CN(CCOC)C(=O)CN(Cc1ccc2c(c1)OCO2)C(=O)CN(CC(C)C)C(=O)CN(CCCCN)C(=O)CN(CCCCN)C(=O)CN(CC(C)C)C(=O)CNc1ccc(C(=O)c2ccccc2)cc1)C(N)=O)C(=O)CN(Cc1ccc2c(c1)OCO2)C(=O)CN(CC(C)C)C(=O)CN(CCCCN)C(=O)CN(CCCCN)C(=O)CN(CC(C)C)C(=O)CNc1ccc(C(=O)c2ccccc2)cc1` (stereo partly specified), the Activity result with NCI-H1299 was “Dose-Dependent Effect”.

Regarding `COCCN(CC(=O)N[C@H](CCCCN)C(=O)N[C@H](CCSC)C(=O)NCCOCCOCC(=O)NCCCCC(NC(=O)COCCOCCNC(=O)[C@@H](CCSC)NC(=O)[C@@H](CCCCN)NC(=O)CN(CCOC)C(=O)CN(Cc1ccc2c(c1)OCO2)C(=O)CN(CC(C)C)C(=O)CN(CCCCN)C(=O)CN(CCCCN)C(=O)CN(CC(C)C)C(=O)CNc1ccc(C(=O)c2ccccc2)cc1)C(N)=O)C(=O)CN(Cc1ccc2c(c1)OCO2)C(=O)CN(CC(C)C)C(=O)CN(CCCCN)C(=O)CN(CCCCN)C(=O)CN(CC(C)C)C(=O)CNc1ccc(C(=O)c2ccccc2)cc1` (stereo partly specified), the Activity result in the assay with NCI-H1299 is “Dose-Dependent Effect”.

For the compound `COCCN(CC(=O)N[C@H](CCCCN)C(=O)N[C@H](CCSC)C(=O)NCCOCCOCC(=O)NCCOCCOCC(=O)NCCCCC(NC(=O)COCCOCCNC(=O)COCCOCCNC(=O)[C@@H](CCSC)NC(=O)[C@@H](CCCCN)NC(=O)CN(CCOC)C(=O)CN(Cc1ccc2c(c1)OCO2)C(=O)CN(CC(C)C)C(=O)CN(CCCCN)C(=O)CN(CCCCN)C(=O)CN(CC(C)C)C(=O)CNc1ccc(C(=O)c2ccccc2)cc1)C(N)=O)C(=O)CN(Cc1ccc2c(c1)OCO2)C(=O)CN(CC(C)C)C(=O)CN(CCCCN)C(=O)CN(CCCCN)C(=O)CN(CC(C)C)C(=O)CNc1ccc(C(=O)c2ccccc2)cc1` (stereo partly specified), the Activity entry in the assay on NCI-H1299 was “Dose-Dependent Effect”.

As to `COCCN(CC(=O)N[C@H](CCCCN)C(=O)N[C@H](CCSC)C(=O)NCC(=O)NCCCCC(NC(=O)CNC(=O)CNC(=O)[C@@H](CCSC)NC(=O)[C@@H](CCCCN)NC(=O)CN(CCOC)C(=O)CN(Cc1ccc2c(c1)OCO2)C(=O)CN(CC(C)C)C(=O)CN(CCCCN)C(=O)CN(CCCCN)C(=O)CN(CC(C)C)C(=O)CNc1ccc(C(=O)c2ccccc2)cc1)C(N)=O)C(=O)CN(Cc1ccc2c(c1)OCO2)C(=O)CN(CC(C)C)C(=O)CN(CCCCN)C(=O)CN(CCCCN)C(=O)CN(CC(C)C)C(=O)CNc1ccc(C(=O)c2ccccc2)cc1` (stereo partly specified), in the assay on NCI-H1299, the Activity entry was “Dose-Dependent Effect”.

Regarding `COCCN(CC(=O)N[C@H](CCCCN)C(=O)N[C@H](CCSC)C(=O)NCC(=O)NCCCCC(NC(=O)CNC(=O)[C@@H](CCSC)NC(=O)[C@@H](CCCCN)NC(=O)CN(CCOC)C(=O)CN(Cc1ccc2c(c1)OCO2)C(=O)CN(CC(C)C)C(=O)CN(CCCCN)C(=O)CN(CCCCN)C(=O)CN(CC(C)C)C(=O)CNc1ccc(C(=O)c2ccccc2)cc1)C(N)=O)C(=O)CN(Cc1ccc2c(c1)OCO2)C(=O)CN(CC(C)C)C(=O)CN(CCCCN)C(=O)CN(CCCCN)C(=O)CN(CC(C)C)C(=O)CNc1ccc(C(=O)c2ccccc2)cc1` (stereo partly specified), the IC50 – broadly, the point on the concentration scale where inhibition reaches its midpoint – in the assay on NCI-H1299 (NCI-H1299, 96 h) worked out at 6 µM. The Activity entry in the assay with NCI-H1299 was “Dose-Dependent Effect”.

As for `COCCN(CC(=O)N[C@H](CCCCN)C(=O)N[C@H](CCSC)C(=O)NCCCCC(NC(=O)CNC(=O)[C@@H](CCSC)NC(=O)[C@@H](CCCCN)NC(=O)CN(CCOC)C(=O)CN(Cc1ccc2c(c1)OCO2)C(=O)CN(CC(C)C)C(=O)CN(CCCCN)C(=O)CN(CCCCN)C(=O)CN(CC(C)C)C(=O)CNc1ccc(C(=O)c2ccccc2)cc1)C(N)=O)C(=O)CN(Cc1ccc2c(c1)OCO2)C(=O)CN(CC(C)C)C(=O)CN(CCCCN)C(=O)CN(CCCCN)C(=O)CN(CC(C)C)C(=O)CNc1ccc(C(=O)c2ccccc2)cc1` (stereo partly specified), in the assay on NCI-H1299, the Activity result was “Dose-Dependent Effect”.
